Target: T1, HCV NS3 helicase NS3h_1b(con1) (Hepatitis C virus genotype 1b, UniProt Q9WMX2)
T1 construct: truncated C-terminally His-tagged NS3 proteins lacking the N-terminal protease, called NS3h; His-tag (C); made in house
Experiment: MBHA screen of NCI mechanistic set library at 20 μM (percent inhibition, compound interference)
Type: biochemical
Conditions: compounds at 20 μM; for Inh. (%) (Inhibition): calculated from Equation 1
Procedure, shortened: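 Molecular beacon-based DNA unwinding assay; compounds screened at 20 μM in triplicate, with DMSO-only negative and 500 nM dT20 positive controls. Fluorescence (ex 643/em 670 nm) was read before and 30 min after adding ATP to 1 mM. Percent inhibition came from the change relative to DMSO controls; interference from pre-ATP fluorescence versus DMSO controls.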

[1] = MBHA with DNA substrate, assay interference calculated with Equation 2
[2] = assay interference calculated with Equation 2 (fluorescence vs DMSO-only controls before ATP)

T1 sequence (Q9WMX2 1192-1657): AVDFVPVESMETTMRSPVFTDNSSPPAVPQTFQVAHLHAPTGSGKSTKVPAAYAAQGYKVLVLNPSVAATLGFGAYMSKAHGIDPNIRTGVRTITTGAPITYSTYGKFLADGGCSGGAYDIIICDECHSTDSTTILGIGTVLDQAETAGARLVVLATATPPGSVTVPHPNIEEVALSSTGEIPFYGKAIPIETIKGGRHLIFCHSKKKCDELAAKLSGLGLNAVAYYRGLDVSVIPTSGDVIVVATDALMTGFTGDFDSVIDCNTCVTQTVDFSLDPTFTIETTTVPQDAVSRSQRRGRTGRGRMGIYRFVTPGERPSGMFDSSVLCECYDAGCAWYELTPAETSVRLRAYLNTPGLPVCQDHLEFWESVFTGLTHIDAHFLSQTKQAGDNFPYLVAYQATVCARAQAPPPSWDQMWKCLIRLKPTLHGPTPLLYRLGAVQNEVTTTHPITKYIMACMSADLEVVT

Structure (SMILES)	Int.* (Ratio) (Interference) [1]	Inh. (%) (Inhibition) (MBHA with DNA substrate)	Inh. (%) (Inhibition) (MBHA with a DNA substrate)	Int.* (Ratio) (Interference) [2]
C=C1CC(COc2cc(=O)oc3ccccc23)(c2ccccc2)OC1=O (centres unmarked) [Compound 668270]	0.83	28.1	–	–
CC(C)c1ccc(O)c(=O)cc1 [Compound 18805]	0.98	31.0	–	–
COc1ccc(C=CC(=O)Oc2cc(O)cc(O)c2)cc1 [Compound 175296]	0.90	4.7	–	–
CCOC(=O)[C@H](CC(C)C)NC(=O)C(Cc1ccc(N(CCCl)CCCl)cc1)NC(C)=O (some centres unmarked) [Compound 167780]	1.00	22.8	–	–
CCS(=O)(=O)Nc1ccc(Nc2c3ccccc3nc3ccccc23)c(OC)c1.CS(=O)(=O)O [Compound 243928]	0.87	3.4	–	–
O=C1Oc2ccccc2C1C/C(=N\Nc1ccccc1)c1ccccc1O (centres unmarked) [Compound 647613]	0.91	23.5	–	–
C[C@@H]1CC[C@H]2C(C)(C)[C@H]3C[C@@]12CC[C@@]3(C)O [Compound 403883]	–	–	−4.0	0.93
C[n+]1ccc(Nc2ccc(NC(=O)c3ccc(Nc4cc[n+](C)c5ccc([N+](=O)[O-])cc45)cc3[N+](=O)[O-])cc2)cc1.Cl [Compound 218439]	0.46	−8.9	–	–
COC1OC(COCc2ccc(Cl)cc2)C(OCc2ccc(Cl)cc2)C1O (centres unmarked) [Compound 626120]	0.97	15.1	–	–
Nc1ccc(S(=O)(=O)Nc2cnc3c(Cl)cccc3n2)cc1 [Compound 339004]	0.89	18.5	–	–
CC[C@@]12CCCN3CC[C@]4(c5cccc(OC)c5N(C(C)=O)[C@@H]4CC1)[C@H]32 [Compound 61811]	0.91	−2.8	–	–
C[C@H]1CCC/C=C/[C@@H]2C[C@H](O)C[C@H]2[C@H](O)/C=C/C(=O)O1 [Compound 89671]	–	–	−5.9	1.04
COc1c2c(c(OC)c3c1c(=O)c1ccccc1n3C)OCO2 [Compound 34757]	0.98	−7.4	–	–
CON(C)C(=O)C1CCCO1 (centres unmarked) [Compound 695218]	0.99	13.3	–	–
COc1ccc2nc(NC(=O)C(=O)CC(=O)c3ccc(Cl)cc3)sc2c1 [Compound 623059]	0.94	−8.7	–	–
CC1=C[C@H]2O[C@@H]3[C@H](O)[C@@H](O)[C@@](C)([C@@]2(CO)CC1)[C@]31CO1 [Compound 269142]	–	–	−19.6	1.07

Structure (SMILES)	Int.* (Ratio) (Interference) [1]	Inh. (%) (Inhibition) (MBHA with DNA substrate)	Inh. (%) (Inhibition) (MBHA with a DNA substrate)	Int.* (Ratio) (Interference) [2]
COc1ccccc1Cc1nc(-c2ccccc2)nn(C2OC(COC(C)=O)C(OC(C)=O)C(OC(C)=O)C2OC(C)=O)c1=S (centres unmarked) [Compound 625873]	1.02	−16.6	–	–
N=C1C=C(N)C(=O)c2[nH]c(=O)ccc21 [Compound 111041]	–	–	−26.9	0.97
COc1ccc(NC(=O)C(=O)/C=C(\O)c2ccccc2)cc1 [Compound 658709]	0.90	−7.9	–	–
COC(=O)c1cc(-c2c[nH]cc2C(=O)OCc2ccccc2)cn1S(=O)(=O)c1ccc(C)cc1 [Compound 679527]	0.98	1.5	–	–
O=C(N=Nc1c(O)[nH]c2c(Cl)cc(Cl)cc12)c1ccccc1O [Compound 320864]	0.80	4.4	–	–
O=[N+]([O-])c1ccc(-c2cn(-c3ccc(Cl)cc3)cn2)cc1 [Compound 610744]	0.83	21.5	–	–
Cc1cc([N+](=O)[O-])ccc1Nc1cccc(Cl)c1C [Compound 625641]	–	–	−37.8	1.20
CC1=CC(O)C(O)C2(C)C1CC1OC(=O)C(O)C3C(C)C(O)C4(O)OCC13C42 (centres unmarked) [Compound 14974]	0.99	20.9	–	–
c1coc(CNc2ncnc3[nH]ncc23)c1 [Compound 1620]	–	–	−3.0	1.06
Cc1c(N)nc([C@H](CC(N)=O)NC[C@H](N)C(N)=O)nc1C(=O)N[C@H](C(=O)N[C@H](C)[C@@H](O)[C@H](C)C(=O)N[C@H](C(=O)NCCc1nc(-c2nc(C(=O)NCCC[S+](C)C)cs2)cs1)[C@@H](C)O)[C@@H](OC1OC(CO)C(O)C(O)C1OC1OC(CO)C(O)C(OC(N)=O)C1O)c1cnc[nH]1 (some centres unmarked) [Compound 125066]	0.79	15.8	–	–
C[n+]1cc2cc(O)c(O)cc2c2ccc3cc(O)c(O)cc3c21.Cl.[Cl-].c1ccncc1 [Compound 184403]	0.42	27.4	–	–
O=C1C=Cc2ncccc2C1=O [Compound 400944]	–	–	−6.2	0.84
O=C1Oc2ccccc2C(=O)/C1=C1\C=C(c2ccccc2)SS1 [Compound 293927]	1.00	−14.7	–	–
Cl.NC1(CCNC(=O)c2ccccc2)CCN(C(=O)c2ccccc2)CC1 [Compound 680509]	–	–	−35.7	0.99
OCCNCN(CNCCO)c1nc(N(CNCCO)CNCCO)nc(N(CNCCO)CNCCO)n1 [Compound 653000]	0.97	1.2	–	–

Now from value to molecule:

Int.* (Ratio) (Interference) [1]	Inh. (%) (Inhibition) (MBHA with DNA substrate)	Inh. (%) (Inhibition) (MBHA with a DNA substrate)	Int.* (Ratio) (Interference) [2]	Structure (SMILES)
0.90	−0.3	–	–	C=C(NC(=O)C(=C)NC(=O)c1csc(C2=N[C@@H]3c4csc(n4)C4NC(=O)c5csc(n5)C([C@](C)(O)[C@@H](C)O)NC(=O)[C@H]5CSC(=N5)/C(=C/C)NC(=O)C(C(C)O)NC(=O)c5csc(n5)C3(CC2)NC(=O)[C@H](C)NC(=O)C(=C)NC(=O)C(=C)NC(=O)C(C(C)C)N[C@@H]2C=Cc3c([C@@H](C)O)cc(nc3[C@H]2O)C(=O)OC4C)n1)C(N)=O (some centres unmarked) [Compound 285116]
0.86	2.1	–	–	COc1ccc2c(c1)CCc1c-2n[nH]c1-c1[nH]nc2c1CCc1cc(OC)ccc1-2 [Compound 371846]
1.03	−1.8	–	–	CC1=CC(=O)c2cccc(NC3=NCCO3)c21 [Compound 664331]
1.03	29.4	–	–	COc1ccc(/C(=N/O)C(c2ccc(OC)cc2)C2C(=O)Oc3ccccc32)cc1 (centres unmarked) [Compound 641607]
–	–	−6.5	0.95	CCOC(=O)CCc1c(C)c2c(O)cc(O)cc2oc1=O [Compound 622616]
0.81	15.6	–	–	C=CC(=O)N1C/C(=C\c2ccccc2)C(=O)/C(=C/c2ccccc2)C1 [Compound 632841]
1.00	17.4	–	–	CSCC(CO)NC(=O)/C=C/c1c(C)[nH]c(=O)[nH]c1=O (centres unmarked) [Compound 233872]
0.93	−16.2	–	–	CCCCn1c2c(n(CCCC)c1=S)-c1c(n(CCCC)c(=S)n1CCCC)SSSS2 [Compound 700582]
1.10	2.5	–	–	Cc1c(Cl)cccc1NC(=O)/C=C/c1ccccc1 [Compound 191392]
0.95	−0.4	–	–	Cc1ccc(NC(=S)C#N)c(C)c1 [Compound 369318]
1.06	37.4	–	–	CC(=O)OC[C@H]1O[C@@H](NC(=O)N(CCCl)N=O)[C@H](OC(C)=O)[C@@H](OC(C)=O)[C@@H]1OC(C)=O [Compound 245432]
0.97	−17.0	–	–	OC(CN1CCCCC1)c1ccc(/C=C/c2ccc(Cl)cc2)cc1 (centres unmarked) [Compound 26040]
–	–	9.1	0.93	Cc1cccc(C)c1NC(=O)C(=O)C(c1ccccc1Cl)S(=O)(=O)Cc1ccccc1Cl (centres unmarked) [Compound 657722]
–	–	−30.3	1.07	COc1ccc(C2=Nc3ccccc3SC(C)C2)cc1 (centres unmarked) [Compound 636817]
–	–	12.0	0.93	Fc1cccc(Cl)c1C1SCc2nc3ccccc3n21 (centres unmarked) [Compound 625483]
–	–	7.4	1.05	CCN(CC)CCOc1ccc(C(O)(Cc2ccc(OC)cc2)c2ccccc2)cc1 (centres unmarked) [Compound 19857]
1.01	−8.2	–	–	CC1CCCC(C(=O)/C(=C/c2cccc(Cl)c2)C(=O)C(=O)O)C1 (centres unmarked) [Compound 636084]
1.09	4.9	–	–	COC1=CC(=O)c2c(ccc3ncnc(N)c23)C1=O [Compound 622190]
0.86	−14.2	–	–	Cc1[nH]c(=O)nc(N/N=C/c2ccc(Cl)cc2)c1C(=O)Nc1ccc(Cl)cc1 [Compound 624947]
–	–	−19.4	1.08	COc1cc(C(C)c2cc3c(cc2OCCO)OCO3)cc(OC)c1OC (centres unmarked) [Compound 352876]
1.01	−17.3	–	–	CCN1CCC(O)(/C=C/c2ccc(C)cc2)C(C(=O)/C=C/c2ccc(C)cc2)C1.Cl (centres unmarked) [Compound 657298]

Reference: patent publication US9464064B2, “HCV helicase inhibitors and methods of use thereof” (University of Kansas, priority 2011, dated 2016)
